{
  "source": "ChEMBL document CHEMBL1201862",
  "about": "“PubChem BioAssay data set” (2004)",
  "key": {"Fibrinogen beta chain [1]": {"biological_target": "T1, Fibrinogen beta chain (Homo sapiens, UniProt P02675)", "T1 sequence (P02675 whole entry, the tested form may be a part)": "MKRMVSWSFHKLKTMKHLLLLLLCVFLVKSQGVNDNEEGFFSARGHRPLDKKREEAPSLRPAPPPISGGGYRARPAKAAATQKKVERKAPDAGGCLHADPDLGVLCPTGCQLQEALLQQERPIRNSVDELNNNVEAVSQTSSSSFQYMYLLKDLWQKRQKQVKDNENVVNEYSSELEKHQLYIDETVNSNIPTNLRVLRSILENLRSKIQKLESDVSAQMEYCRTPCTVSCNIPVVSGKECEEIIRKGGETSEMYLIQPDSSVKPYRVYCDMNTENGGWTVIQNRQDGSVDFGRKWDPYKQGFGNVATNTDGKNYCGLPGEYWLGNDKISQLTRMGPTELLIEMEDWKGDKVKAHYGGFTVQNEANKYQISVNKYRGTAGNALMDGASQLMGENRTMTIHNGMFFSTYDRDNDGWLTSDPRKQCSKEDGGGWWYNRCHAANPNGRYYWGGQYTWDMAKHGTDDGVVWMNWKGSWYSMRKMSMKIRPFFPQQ", "experiment": "Fluorescence polarization-based biochemical high throughput dose response assay to identify inhibitors that disrupt the binding of a cyclic peptide (Tn7) to the fibrin proteolytic product D-Dimer and fragment E complex [DD(E )]."}, "[2]": {"biological_target": "T2, Endoribonuclease toxin MazF (Escherichia coli K-12, UniProt P0AE70)", "T2 sequence (P0AE70 whole entry)": "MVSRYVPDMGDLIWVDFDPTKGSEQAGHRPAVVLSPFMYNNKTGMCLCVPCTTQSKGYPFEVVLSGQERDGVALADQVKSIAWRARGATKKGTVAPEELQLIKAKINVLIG", "experiment": "MazF toxin RNase activators, dose response, biochemical, fluorescence, single-stranded RNA substrate, uHTS hits (AID 588481)", "type": "functional"}, "[3]": {"biological_target": "T2, Endoribonuclease toxin MazF", "experiment": "fluorescent RNA oligo signal without MazF, dose response, counter-screen for MazEF activator project, biochemical, fluorescence, single-stranded RNase substrate (AID 588502)", "type": "functional"}, "Fibrinogen beta chain [4]": {"biological_target": "T1, Fibrinogen beta chain", "experiment": "Fluorescence polarization-based biochemical high throughput dose response assay to identify inhibitors that disrupt the binding of a cyclic peptide (Tn6) to the fibrin proteolytic product D-Dimer and fragment E complex [DD(E )]."}, "[5]": {"biological_target": "Metabotropic glutamate receptor 7 (Homo sapiens, UniProt Q14831)", "sequence (Q14831 whole entry)": "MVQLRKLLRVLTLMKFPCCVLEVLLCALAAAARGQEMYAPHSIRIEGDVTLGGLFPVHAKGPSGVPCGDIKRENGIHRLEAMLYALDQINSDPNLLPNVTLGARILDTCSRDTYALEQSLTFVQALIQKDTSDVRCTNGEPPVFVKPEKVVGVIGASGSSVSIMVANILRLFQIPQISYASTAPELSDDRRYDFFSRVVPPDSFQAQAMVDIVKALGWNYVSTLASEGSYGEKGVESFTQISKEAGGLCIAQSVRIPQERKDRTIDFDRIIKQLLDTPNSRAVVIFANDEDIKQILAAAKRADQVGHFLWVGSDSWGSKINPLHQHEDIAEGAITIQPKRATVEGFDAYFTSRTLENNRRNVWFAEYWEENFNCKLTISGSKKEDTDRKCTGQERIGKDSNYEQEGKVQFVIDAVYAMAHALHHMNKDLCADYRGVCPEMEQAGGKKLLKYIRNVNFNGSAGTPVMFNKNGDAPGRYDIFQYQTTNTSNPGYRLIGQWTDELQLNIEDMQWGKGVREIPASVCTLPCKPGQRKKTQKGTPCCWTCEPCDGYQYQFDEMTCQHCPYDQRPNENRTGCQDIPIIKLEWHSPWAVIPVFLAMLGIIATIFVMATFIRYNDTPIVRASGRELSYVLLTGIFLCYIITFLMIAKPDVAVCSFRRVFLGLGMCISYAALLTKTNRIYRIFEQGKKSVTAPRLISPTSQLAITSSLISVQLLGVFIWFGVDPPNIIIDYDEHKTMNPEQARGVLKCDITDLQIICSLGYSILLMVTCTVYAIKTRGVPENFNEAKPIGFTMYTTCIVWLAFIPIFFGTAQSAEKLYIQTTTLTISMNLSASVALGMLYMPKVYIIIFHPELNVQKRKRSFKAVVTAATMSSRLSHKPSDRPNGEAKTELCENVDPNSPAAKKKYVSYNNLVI", "experiment": "mGlu7 positive allosteric modulators, dose response, cell-based, calcium mobilization, Galpha15 (AID 743384)", "type": "functional"}, "[6]": {"experiment": "ADAM10 inhibitors, peptide cleavage, dose response, biochemical, QFRET (AID 743254);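 also: ADAM10 enzyme with the DM2 quenched FRET peptide as substrate; EDANS fluorescence gain as the protease cuts the substrate; inhibitor potency against ADAM10 proteolytic activity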"}, "[7]": {"experiment": "cytotoxicity toward NIH3T3 fibroblasts, dose response, counter-screen, cell-based, ATP luminescence, mouse fibroblasts (AID 2010);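 also: cells exposed to compound for about 90 hours before reading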", "type": "functional"}, "[8]": {"biological_target": "Disintegrin and metalloproteinase domain-containing protein 17 (Homo sapiens, UniProt P78536)", "experiment": "ADAM17 protease inhibitors, dose response, counter-screen for ADAM10 exosite inhibitor project, biochemical, quenched FRET substrate (AID 743253)"}, "[9]": {"experiment": "inhibitors of intracellular T. cruzi replication, confirmation, NIH3T3 host cells, beta-gal luminescence (AID 2044);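 also: luminescent beta-galactosidase reporter signal from transgenic T. cruzi replicating inside host cells; inhibitors lower the luminescence signal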", "type": "functional, cell-based"}, "[10]": {"biological_target": "Metabotropic glutamate receptor 5 (Rattus norvegicus, UniProt P31424)", "sequence (P31424 whole entry)": "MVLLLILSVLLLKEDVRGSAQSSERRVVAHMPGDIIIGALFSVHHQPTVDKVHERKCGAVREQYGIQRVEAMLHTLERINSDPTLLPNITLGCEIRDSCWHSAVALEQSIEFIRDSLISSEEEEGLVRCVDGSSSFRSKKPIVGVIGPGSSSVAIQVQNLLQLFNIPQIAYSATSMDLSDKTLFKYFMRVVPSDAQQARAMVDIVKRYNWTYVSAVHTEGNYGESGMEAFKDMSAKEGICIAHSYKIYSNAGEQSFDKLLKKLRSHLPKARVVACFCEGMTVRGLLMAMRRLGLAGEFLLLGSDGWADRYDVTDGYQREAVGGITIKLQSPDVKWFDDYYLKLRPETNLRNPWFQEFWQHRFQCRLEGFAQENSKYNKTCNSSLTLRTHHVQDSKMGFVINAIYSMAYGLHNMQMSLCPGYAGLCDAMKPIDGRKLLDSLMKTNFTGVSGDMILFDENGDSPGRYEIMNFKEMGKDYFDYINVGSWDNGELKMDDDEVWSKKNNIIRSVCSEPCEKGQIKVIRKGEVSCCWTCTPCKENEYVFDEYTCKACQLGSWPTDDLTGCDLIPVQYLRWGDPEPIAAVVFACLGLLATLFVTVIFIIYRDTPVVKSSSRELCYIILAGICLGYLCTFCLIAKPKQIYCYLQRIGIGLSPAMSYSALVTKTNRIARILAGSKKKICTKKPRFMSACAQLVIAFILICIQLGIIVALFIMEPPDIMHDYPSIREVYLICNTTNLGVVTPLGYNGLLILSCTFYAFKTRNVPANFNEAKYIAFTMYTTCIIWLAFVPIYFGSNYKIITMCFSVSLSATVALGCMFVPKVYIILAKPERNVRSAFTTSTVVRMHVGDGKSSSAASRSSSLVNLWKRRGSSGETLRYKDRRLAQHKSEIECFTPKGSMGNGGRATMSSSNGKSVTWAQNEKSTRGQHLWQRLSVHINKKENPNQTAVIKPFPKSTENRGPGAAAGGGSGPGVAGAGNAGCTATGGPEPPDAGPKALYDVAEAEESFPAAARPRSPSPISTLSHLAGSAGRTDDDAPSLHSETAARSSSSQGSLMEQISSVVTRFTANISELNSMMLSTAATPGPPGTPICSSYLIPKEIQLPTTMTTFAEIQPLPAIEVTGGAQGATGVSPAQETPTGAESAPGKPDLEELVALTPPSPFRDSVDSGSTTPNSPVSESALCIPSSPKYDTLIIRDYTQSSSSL", "experiment": "Identification of a glycine sulfonamide based non-MPEP site positive allosteric potentiator (PAM) of mGlu5 (calcium_assay).", "type": "functional"}, "[11]": {"biological_target": "Delta-type opioid receptor (Homo sapiens, UniProt P41143)", "sequence (P41143 whole entry)": "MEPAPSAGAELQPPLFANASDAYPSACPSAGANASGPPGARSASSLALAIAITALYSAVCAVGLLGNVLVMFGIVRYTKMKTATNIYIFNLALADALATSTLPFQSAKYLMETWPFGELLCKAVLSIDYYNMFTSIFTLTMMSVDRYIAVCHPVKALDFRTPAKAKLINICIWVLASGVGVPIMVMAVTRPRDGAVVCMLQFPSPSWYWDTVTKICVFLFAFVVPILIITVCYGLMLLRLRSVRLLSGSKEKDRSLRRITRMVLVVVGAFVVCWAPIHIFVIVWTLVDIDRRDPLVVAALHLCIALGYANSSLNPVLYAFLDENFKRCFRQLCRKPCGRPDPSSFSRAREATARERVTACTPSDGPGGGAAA", "experiment": "Late-stage results from the probe development effort to identify antagonists of OPRK1: fluorescence-based cell-based dose response OPRD1 counterscreen.", "type": "functional"}, "Mu-type opioid receptor": {"biological_target": "Mu-type opioid receptor (Homo sapiens, UniProt P35372)", "sequence (P35372 whole entry)": "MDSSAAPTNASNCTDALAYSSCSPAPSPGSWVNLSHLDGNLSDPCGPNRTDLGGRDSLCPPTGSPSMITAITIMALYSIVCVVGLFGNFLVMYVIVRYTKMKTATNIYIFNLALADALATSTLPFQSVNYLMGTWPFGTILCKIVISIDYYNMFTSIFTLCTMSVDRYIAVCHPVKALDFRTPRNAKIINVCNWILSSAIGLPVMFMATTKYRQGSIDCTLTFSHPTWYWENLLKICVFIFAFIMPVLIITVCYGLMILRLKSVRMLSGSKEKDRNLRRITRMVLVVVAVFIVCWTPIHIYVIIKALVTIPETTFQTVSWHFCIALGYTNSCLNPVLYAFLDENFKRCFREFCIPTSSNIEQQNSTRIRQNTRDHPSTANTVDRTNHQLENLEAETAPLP", "experiment": "Late-stage results from the probe development effort to identify antagonists of OPRK1: luminescence-based cell-based dose response OPRM1 counterscreen.", "type": "functional"}, "[12]": {"experiment": "reduction of endogenous Shn3 mRNA, dose response, qPCR, Clone20 cells, cherry-pick (AID 743415)", "type": "functional, cell-based"}, "[13]": {"experiment": "reduction of Shn3 3'UTR firefly luciferase signal, dose response, Schnurri-3 inhibitor project, cell-based, Clone20 osteoblasts, cherry-pick, set 2 (AID 720490);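 also: actives lower the luminescence signal as inhibitors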", "type": "functional"}, "[14]": {"biological_target": "T3, Heat shock factor protein 1 (Mus musculus, UniProt P38532)", "T3 sequence (P38532 whole entry)": "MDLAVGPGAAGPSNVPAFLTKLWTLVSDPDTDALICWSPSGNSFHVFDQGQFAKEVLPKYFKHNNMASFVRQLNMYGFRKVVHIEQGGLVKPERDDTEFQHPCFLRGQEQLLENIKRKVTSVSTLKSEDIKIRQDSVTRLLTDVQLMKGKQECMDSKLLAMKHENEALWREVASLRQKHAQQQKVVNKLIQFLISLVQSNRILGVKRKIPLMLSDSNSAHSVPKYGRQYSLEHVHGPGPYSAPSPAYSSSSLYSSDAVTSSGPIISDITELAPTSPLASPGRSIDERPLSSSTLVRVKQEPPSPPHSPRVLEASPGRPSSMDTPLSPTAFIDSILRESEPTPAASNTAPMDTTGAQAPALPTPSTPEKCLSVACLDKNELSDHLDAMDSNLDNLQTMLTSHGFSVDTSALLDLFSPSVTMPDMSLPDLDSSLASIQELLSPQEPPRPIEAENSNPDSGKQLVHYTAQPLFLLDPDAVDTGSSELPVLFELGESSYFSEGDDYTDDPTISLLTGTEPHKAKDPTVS", "experiment": "HSF1 potentiators in luciferase reporter cells, confirmation, cell-based, NIH3T3, luminescence, dose retest (AID 435004);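 also: stress induced by proteasome inhibitor MG132 added 30 min after compound; actives raise luminescence as potentiators of the MG132 stress response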", "type": "functional"}, "Large T antigen": {"biological_target": "Large T antigen (Simian virus 40, UniProt P03070)", "type": "functional, Betapolyomavirus macacae"}, "[15]": {"experiment": "HepG2 cell cytotoxicity, dose response, cytotoxicity control for Shn3 inhibitor project, CellTiter-Glo, cherry-picked (AID 624134)", "type": "functional, cell-based"}, "CHO": {"tested_on": "CHO", "experiment": "cytotoxicity in TLR9-MyD88 CHO cells, dose response, cytotoxicity control for TLR9-MyD88 binding inhibitor project, cell-based, luminescence (AID 588339);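 also: CHO cells stably coexpressing TLR9 and MyD88 fusions from primary screen; compound exposure lasted 48 hours before viability readout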", "type": "functional, hamster", "settings": "Cricetulus griseus"}, "[16]": {"experiment": "inhibitors of control Renilla luciferase reporter, dose response, counter-screen for Shn3 3'UTR targeting project, Clone20-Shn3RL cells, dual-Glo, cherry-pick, set 2 (AID 720724)", "type": "functional, cell-based", "settings": "Dual-Go Shn3RL"}, "[17]": {"experiment": "Shn3 3'UTR reporter inhibitors, dose response, cell-based, Clone20 osteoblasts, firefly luciferase, cherry-picked (AID 624132)", "type": "functional"}, "[18]": {"biological_target": "Bifunctional protein GlmU (Mycobacterium tuberculosis, UniProt P9WMN3)", "sequence (P9WMN3 whole entry)": "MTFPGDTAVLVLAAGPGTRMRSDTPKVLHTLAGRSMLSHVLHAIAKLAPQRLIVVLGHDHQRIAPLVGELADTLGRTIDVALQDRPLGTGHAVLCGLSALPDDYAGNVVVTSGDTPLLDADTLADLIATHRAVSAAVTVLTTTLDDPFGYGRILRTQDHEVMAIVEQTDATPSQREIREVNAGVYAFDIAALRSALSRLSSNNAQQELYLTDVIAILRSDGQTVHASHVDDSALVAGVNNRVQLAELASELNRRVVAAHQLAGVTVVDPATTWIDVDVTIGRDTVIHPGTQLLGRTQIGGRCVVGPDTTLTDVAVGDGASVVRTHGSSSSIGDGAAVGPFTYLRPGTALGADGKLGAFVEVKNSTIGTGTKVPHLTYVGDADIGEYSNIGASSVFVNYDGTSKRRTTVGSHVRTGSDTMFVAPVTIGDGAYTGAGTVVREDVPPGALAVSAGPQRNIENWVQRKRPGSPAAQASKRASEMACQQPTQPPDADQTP", "experiment": "Inhibitors of Mycobacterial Glucosamine-1-phosphate acetyl transferase (GlmU). Secondary screen.", "set-up": "species or system Mycobacterium tuberculosis H37Rv"}, "[19]": {"experiment": "control 3'UTR Renilla luciferase suppression, dose response, counter-screen for Shn3 inhibitor project, cell-based, Clone20-Shn3RL, cherry-picked (AID 624133)", "type": "functional"}, "Beta Lactamase": {"biological_target": "Beta Lactamase (Pseudomonas aeruginosa, UniProt Q932Y6)", "sequence (Q932Y6 whole entry)": "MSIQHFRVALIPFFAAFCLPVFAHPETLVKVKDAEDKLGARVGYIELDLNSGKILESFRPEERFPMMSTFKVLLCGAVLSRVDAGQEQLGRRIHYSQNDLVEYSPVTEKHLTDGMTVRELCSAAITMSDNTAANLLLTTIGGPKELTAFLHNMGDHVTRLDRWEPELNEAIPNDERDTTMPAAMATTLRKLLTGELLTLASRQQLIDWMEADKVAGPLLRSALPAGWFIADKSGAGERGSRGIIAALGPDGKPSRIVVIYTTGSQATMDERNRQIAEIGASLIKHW", "experiment": "beta-lactamase reporter inhibitor potency, dose response, artefact control for TLR9-MyD88 binding inhibitor project, BLA reporter cells, FRET fluorescence (AID 588341)", "type": "cell-based"}, "[20]": {"experiment": "NIH/3T3 fibroblast cytotoxicity, dose response, cytotoxicity control, cell-based, plate reader, dry powder, set 2 (AID 652280)", "type": "functional", "settings": "NIH3T3"}, "[21]": {"biological_target": "E3 ubiquitin-protein ligase UHRF1 (Homo sapiens, UniProt Q96T88)", "sequence (Q96T88 whole entry, the tested form may be a part)": "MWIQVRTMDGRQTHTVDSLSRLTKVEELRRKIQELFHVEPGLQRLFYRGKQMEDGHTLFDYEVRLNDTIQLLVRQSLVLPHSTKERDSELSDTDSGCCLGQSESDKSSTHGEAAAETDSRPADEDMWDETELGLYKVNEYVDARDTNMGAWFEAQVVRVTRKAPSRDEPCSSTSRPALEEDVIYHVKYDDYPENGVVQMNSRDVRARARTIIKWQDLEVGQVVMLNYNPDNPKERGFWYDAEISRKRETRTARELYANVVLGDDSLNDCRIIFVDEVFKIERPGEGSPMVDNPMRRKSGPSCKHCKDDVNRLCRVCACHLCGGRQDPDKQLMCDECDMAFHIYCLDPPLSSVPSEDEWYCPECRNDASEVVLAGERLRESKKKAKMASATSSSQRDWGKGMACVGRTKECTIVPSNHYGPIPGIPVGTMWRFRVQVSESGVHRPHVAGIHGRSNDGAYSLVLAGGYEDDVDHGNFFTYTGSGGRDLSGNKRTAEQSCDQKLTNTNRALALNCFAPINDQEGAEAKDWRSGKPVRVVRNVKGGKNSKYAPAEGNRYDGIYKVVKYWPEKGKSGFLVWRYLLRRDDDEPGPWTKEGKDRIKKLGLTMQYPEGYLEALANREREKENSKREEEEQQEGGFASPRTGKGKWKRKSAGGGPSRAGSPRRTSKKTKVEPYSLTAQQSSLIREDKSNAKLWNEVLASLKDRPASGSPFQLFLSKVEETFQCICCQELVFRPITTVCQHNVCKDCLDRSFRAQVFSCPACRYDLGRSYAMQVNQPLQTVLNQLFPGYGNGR", "experiment": "Counterscreen for inhibitors of 5-meCpG-binding domain protein 2 (MBD2): TRFRET-based biochemical high throughput dose response assay to identify inhibitors of binding of ubiquitin-like with PHD and ring finger domains 1 (UHRF1) to methylated oligonucleotide."}},
  "note": "Calls of active or inactive are those of the source.",
  "data": [
    {"smiles": "Cc1ccc2c(c1)[C@H]1[C@H](CO2)[C@H](c2ccccc2)[C@]2(C)C(=O)N(Cc3ccc(F)cc3)CC(=O)N12", "values": [
      {"measurement": "IC50", "setting": "Fibrinogen beta chain [1]", "result": "> 83.3 µM (inactive)"},
      {"measurement": "EC50", "setting": "[2]", "result": "3.83 µM (active)"},
      {"measurement": "EC50", "setting": "[3]", "result": "63.9 µM (inactive)"},
      {"measurement": "IC50", "setting": "Fibrinogen beta chain [4]", "result": "> 83.3 µM (inactive)"}
    ]},
    {"smiles": "CC(=O)Nc1ccc(SCC(=O)c2cc(C)n(CC3CCCO3)c2C)cc1", "note": "(configuration not stated)", "values": [
      {"measurement": "EC50", "setting": "[5]", "result": "4.8 µM (active)"}
    ]},
    {"smiles": "O=S(=O)(c1ccc(NC(=S)NCCC(c2ccccc2)c2ccccc2)cc1)N1CCOCC1", "values": [
      {"measurement": "IC50", "setting": "[6]", "result": "13.2 µM (inactive)"},
      {"measurement": "EC50", "setting": "[7]", "result": "> 30 µM (not active)"},
      {"measurement": "IC50", "setting": "[8]", "result": "> 69.5 µM (inactive)"},
      {"measurement": "EC50", "setting": "[9]", "result": "1.86 µM (active)"}
    ]},
    {"smiles": "CC(C(=O)Nc1ccccn1)N(c1ccccc1Cl)S(C)(=O)=O", "note": "(configuration not stated)", "values": [
      {"measurement": "EC50", "setting": "[10]", "result": "10 µM (inconclusive)"}
    ]},
    {"smiles": "COC(=O)c1cc(Br)cnc1N1CCC(NC2CCCCC2)CC1", "values": [
      {"measurement": "IC50", "setting": "[11]", "result": "19 µM (inactive)"},
      {"measurement": "IC50", "setting": "Mu-type opioid receptor", "result": "1 µM (active)"}
    ]},
    {"smiles": "O=C(c1nnsc1[S+]([O-])c1ccc(Cl)cc1)N1CCOCC1", "note": "(configuration not stated)", "values": [
      {"measurement": "AC50", "setting": "[12]", "result": "13.4 µM (active)"},
      {"measurement": "AC50", "setting": "[13]", "result": "2.43 µM (active)"},
      {"measurement": "EC50", "setting": "[14]", "result": "9.23 µM (active)"},
      {"measurement": "EC50", "setting": "[7]", "result": "2.13 µM (active)"},
      {"measurement": "IC50", "setting": "Large T antigen", "result": "31.6 µM (active)"},
      {"measurement": "AC50", "setting": "[15]", "result": "27.3 µM (active)"},
      {"measurement": "IC50", "setting": "CHO", "result": "2.21 µM (active)"},
      {"measurement": "AC50", "setting": "[16]", "result": "3.79 µM (active)"},
      {"measurement": "AC50", "setting": "[17]", "result": "0.93 µM (active)"},
      {"measurement": "IC50", "setting": "[18]", "result": "181 µM (active)"},
      {"measurement": "EC50", "setting": "[9]", "result": "1.85 µM (active)"},
      {"measurement": "AC50", "setting": "[19]", "result": "7.35 µM (active)"},
      {"measurement": "IC50", "setting": "Beta Lactamase", "result": "30.8 µM (inactive)"}
    ]},
    {"smiles": "Cc1cccc(-c2ccc([C@H]3[C@H](CO)N4CCCCN(CCC(F)(F)F)C[C@@H]34)cc2)c1", "values": [
      {"measurement": "AC50", "setting": "[20]", "result": "3.67 µM (active)"}
    ]},
    {"smiles": "CN(C)C(=O)c1cccc(-c2cnc3c(NC=O)cc(-c4ccccc4N(C)C)cn23)c1", "values": [
      {"measurement": "IC50", "setting": "[21]", "result": "> 43.8 µM (inactive)"}
    ]}
  ]
}
